The test system of experiment [1] is MDR-sup fission yeast. Description: Phenotypic assay of microtubule organization in MDR-sup strain expressing GFP-atb2. The conditions noted are these: 5 µM compound for 3 h, living cells. The experiment is classed as cell-based, Schizosaccharomyces pombe. On the procedure: We have previously screened a collection of 10 371 small molecules to identify compounds that inhibit the growth of a multiple-drug-sensitive fission yeast strain (MDR-sup). We selected 248 compounds (2.4% of the total) that inhibited fission yeast cell growth rate by at least 50% (figure 1a) and subsequently conducted a phenotypic screen of these to identify drugs that affect microtubule organization (figure 1b). After the MDR-sup cells were treated with 5 µM of each compound for 3 h, microtubules were monitored using GFP tagged α-tubulin Atb2 and live-cell fluorescence microscopy. In untreated interphase cells, microtubules form long cytoplasmic arrays that run parallel to the long cellular axis, and in mitotic cells, microtubules form a bipolar spindle in the nucleus and the cytoplasmic microtubules disappear (figure 1c(i), arrow). […] This screen identified 34 compounds that induced cytological phenotypes indicative of defects in microtubule organization or function.
Figure 1. Phenotypic screening in MDR-sup fission yeast (a). Growth assay screening using MDR-sup strain. The optical density was measured with 20 µM of each compound and 248 compounds that gave at least 50% growth inhibition were used for further phenotyping marked by the red lines. Growth was normalized to DMSO-treated cells. (b) Schematic representation of the screening workflow. (c) Examples of the phenotypic assay using L1, P2 and B8 in the MDR-sup strain expressing GFP-atb2 (tubulin) are shown. Cells were incubated in 5 µM compound for 3 h and atb2 signals were detected in living cells. (i) Cells in absence of any compound. In interphase cells, α-tubulin Atb2 protein was detected in the nucleus and interphase microtubules, while mitotic spindles were detected in mitotic cells (arrows). (ii) In the presence of L1, microtubules were depolymerized and tubulin signals were detected distributed throughout the nucleus. (iii) In the presence of P2, short spindles were detected but anaphase spindles were not. (iv) In the presence of B8, interphase microtubules were not detected, while, dots were detected. […]

The test system of experiment [2] is HeLa cells. Description: Time-lapse live imaging of mitotic progression and cell fate in HeLa cells (H2B-mCherry, EGFP-α-tubulin). The experiment is classed as cell-based, human. On the procedure: To determine whether these 34 compounds also induce mitotic abnormalities in human cells, a second screen of these compounds was conducted using HeLa cells. We used time-lapse microscopy to monitor mitotic progression in HeLa cells expressing mCherry-tagged histone H2B to mark chromatin, and EGFP-tagged α-tubulin to monitor microtubules over a 24 h time period in the presence of 2 µM of each of the 34 compounds. The duration of mitosis was determined by live-cell imaging, defined as the period from prophase to cytokinesis based on chromatin and microtubule morphologies (figure 2a). The control DMSO-treated cells progressed through mitosis with a mean mitotic duration of 77 ± 6 min. Among the 34 compounds we tested, nine caused a significant increase in mitotic duration in human cells (figure 2a), ranging from 122 ± 42 min (F15) to 720 ± 53 min (C16). […] As described in the Discussion, we have not carried out a detailed analysis for B8 in this study. To determine whether these cell deaths were caused by apoptosis, caspase activity was assayed for 24 h using time-lapse microscopy in the presence of the 12 compounds. Caspase 3 and Caspase 7 activities were observed 12–24 h after the addition of the compounds (electronic supplementary material, figure S1A). There were also other indications of apoptosis including the morphological chances reminiscing of membrane blebbing, chromatin condensation and cell explosion (electronic supplementary material, figure S1B). Caspase-mediated apoptosis induction is similar to the effects of mitotic arrest caused by anti-microtubule drugs in HeLa cells. […] We conclude that these 12 compounds cause mitotic arrest followed by cell death through apoptotic activation.
Figure 2. Effect of compounds on mitotic progression in HeLa cell (a). Duration of mitosis was analysed by live imaging of HeLa cells stably expressing H2B-mcherry (red) and EGFP-a tubulin (green) treated in the presence of 0.5 µM (K1, L1, J1) or 2 µM (C16, E2, O12, M2, I15, J3, I2, A15, F15) compound for 24 h and the time in mitosis was measured in 200 cells. DMSO-treated cells are shown, which served as the vehicle control. Show mean as ‘+’. (b). The Cell fate after mitosis (normal division, abnormal division or cell death) was quantitatively assessed after the mitotic arrest observed in (a). (c) Dose-dependent change of phenotypes after mitotic arrest with K1, L1 and J1.
For live-cell imaging experiments, 200 000 cells were seeded onto glass-bottom culture dishes (MatTek P35GC-1.5-14-C). Cells were grown overnight before the addition of the compound, and the culture media was replaced with fresh media lacking phenol red to limit phototoxicity before imaging.
Live-cell imaging was performed in a LCV110 U VivaView FL incubator microscope (Olympus) equipped with an X-Cite-exacte illumination source (Excelitas Technologies) and Orca-R2 CCD camera (Hamamatsu Photonics). For screening, images were acquired with a 20 × objective every 15 min for 24–48 h in the differential interference contrast (DIC), m-cherry and GFP channels. For assessment of apoptosis, the cells were monitored every 15 min for 24 h. Individual cells were manually analysed using the CellCognition browser.

In experiment [3] the test system is BT549, CAL51 and MB-157 breast cancer cell lines. Briefly: Viability dose-response in breast cancer cell lines. The class given is cell-based. The conditions noted are these: Homo sapiens, 96 h; range over three breast cancer cell lines; 4 days of treatment. How it is done: The sensitivity of the inhibitors L1, J3, A15 and M2 were evaluated in three breast cancer cell lines, (BT549, CAL51 and MB-157) and a non-cancer cell line from the human mammary gland, MCF-10A (figure 8). Drug sensitivity was determined by culturing breast cancer cell lines (black lines) and the non-cancer cell line (red line) with a range of concentrations of each compound, and viability was measured after 4 days of treatment in triplicate.
Figure 8. Dose–response curves in three cancer cell lines (BT549, CAL51 and MB-157) are shown in black and non-cancer cell line; MCF-10A is shown in red. They were subjected to a dose–response matrix of the tubulin inhibitor, L1, A15, M2 and J3, respectively. Viability relative to the vehicle control was measured […] after treatment. Mean ± s.e.m. for n = 3 experiments is shown.
Cells were plated in 384-well plates at a density of 800 cells per well in 22.5 µl of media. After 24 h, 2.5 µl drug was diluted in media and was added to each well. Following 5 days of incubation, viability was assessed using CellTiter-Glo (Promega) according to the manufacture's protocol. Luminescence in each well was measured using a Synergy Neo2 plate reader (BioTek).

For `COc1cc(Br)cc2c1OC(c1ccc3c(c1)OCO3)C([N+](=O)[O-])=C2` (centres unmarked) [L1], the “microtubule phenotype (GFP-atb2 tubulin signal)” value in experiment [1] was “microtubules are undetectable, and α-tubulin accumulates in the nucleus”. The cell fate entry in experiment [2] (0.5 µM compound) is “arrested cells initially in mitosis, followed by cell death”; in experiment [2] (2 µM compound) it was “immediately induced cell death independent of the phase of the cell cycle”. For the same compound, the “phenotype after mitotic arrest” value in experiment [2] (0.1 and 0.25 µM compound) is given as “abnormal multipolar, asymmetric cell divisions, generating 3–4 daughter cells”. In addition, the IC50 – broadly, the concentration that inhibits the measured activity by half – in experiment [3] lay in the range of 2400 to 3100 nM.

For the origin of these results see PMC8424300, “Identification of novel microtubule inhibitors effective in fission yeast and human cells and their effects on breast cancer cell lines” (Open Biology, 2021).
